Measured values: US20080213817A1, “Enhancement of Th2-Dependent and Inflammatory Response” (priority 2004, published 2008)

Legend:
Format in all cases: cell-based, mice
c-Jun and JunB = assay: Immunoblotting of Jun protein levels in activated T cells
Experimental: (§1) JNK1 was immunoprecipitated from 30 μg cell lysate with anti-JNK1 antibody (333, PharMingen) and its kinase activity measured by an immunecomplex kinase assay with GST-c-Jun(1-79) as a substrate (Xia et al. (2000) Proc Natl Acad Sci USA 97, 5243-5248). c-Jun phosphorylation was quantitated using a PhosphoImager (Bio-Rad) and gel loading was normalized by immunoblotting with a monoclonal antibody against JNK1/2 (666, PharMingen). ERK activation was examined by immunoblotting of gel separated whole cell extracts (100 μg) with an antibody specific for phospho-ERK (Cell Signaling). Polyclonal antibody against MEKK1 was prepared as described (Gallagher et al. (2002) J Biol Chem 277, 45785-45792). Antibodies against c-Jun, JunB, GATA3, c-Maf, NFATc1, NFATc2, p16, and p65 (RelA) were all from Santa Cruz Biotechnology. Polyclonal antibody against Itch was prepared as described (Qiu et al. (2000) J Biol Chem 275, 35734-35737). The levels of various proteins were quantitated by BioRad Quantity One software.
(§2) The levels of Itch and actin were examined was measured by immunoblotting. […] Cells were chased with nonradioactive amino acids for the indicated times, at which they were lysed and Itch expression levels were determined by radioimmunoprecipitation. The levels of [^35S]-labeled Itch were quantitated using a PhosphoImager. […] JNK activity was measured by an immunecomplex kinase assay. Phosphorylated c-Jun was detected by autoradiography and quantitated using a PhosphoImager. […]
Inactivation of MEKK1 or JNK Slows Down JunB and c-Jun Turnover • A. Thymocytes and CD4^+ T cells from WT and Mekk1^ΔKD were stimulated with anti-CD3+anti-CD28 for 24 hrs. Cell extracts were prepared and the levels of various transcription factors were measured by immunoblotting. The relative levels of the different proteins determined by densitometry are indicated. […] The mRNA levels of Jun family members and c-Fos were measured by RNase protection. […] Cell lysates were prepared and immunoprecipitated with various antibodies as indicated, separated by SDS-PAGE and analyzed by autoradiography. […]

WT thymocytes = assay: Thymocyte proliferation, [3H] thymidine incorporation; settings: WT thymocytes
Experimental: For proliferation assays, purified thymocytes or CD4^+ or CD8^+ splenic T cells (2×10^5 cells/well) were cultured in round bottom 96-well plates (Costar) precoated with anti-CD3 antibody (BD Pharmingen) in the absence or presence of soluble anti-CD28 antibody (BD Pharmingen). After 3 days, cultures were pulsed for 6 hrs with 1 μCi [^3H] thymidine (New England Nuclear) per well and cells were harvested. [^3H] thymidine incorporation was measured by scintillation counting. When indicated, either recombinant IL-4 or neutralizing anti-IL-4 antibody (R&D Systems) were added prior to [^3H] thymidine labeling.
For proliferation assays, purified thymocytes (2×10^5 cells/well) were cultured in round bottom 96-well plates (Costar) precoated with anti-CD3 antibody (BD Pharmingen) in the absence or presence of soluble anti-CD28 antibody (BD Pharmingen). […] [^3H] thymidine incorporation was measured by scintillation counting. […]
The effect of the Mekk1^KD mutation on activation of JNK and other MAPKs in response to TCR and CD28 engagement was investigated. • A. WT and Mekk1^KD thymocytes were incubated with anti-CD3 (10 μg/ml) and anti-CD28 (1 μg/ml). At the indicated times, JNK activity was measured by an immunecomplex kinase assay using GST-c-Jun(1-79) as the substrate. Phosphorylated c-Jun was detected by autoradiography and quantitated using a PhosphorImager. […] Cell proliferation was measured as above. […]

Itch = assay: Immunoblotting of Itch level in activated thymocytes; settings: activated WT thymocytes
Experimental: as §1, with “Polyclonal antibody against Itch was prepared as described (Qiu et al. (2000) J Biol Chem 275, 35734-35737).” left out
as §2

Row | SMILES | increase in c-Jun and JunB expression (c-Jun and JunB; activated WT thymocytes (anti-CD3+anti-CD28), 24 hrs, SP600125 0.5 μM, JNKI-1 25 μM) [fold] | increase in [3H] thymidine incorporation (WT thymocytes; different concentrations of anti-CD3+anti-CD28, increasing amounts of inhibitor, 72 hrs) | decrease in Itch expression (Itch; 24 hrs, 0.5 μM) [fold] | c-Jun and JunB expression (in words) (c-Jun and JunB; WT CD4^+ T cells stimulated with anti-CD3 and anti-CD28, 24 hours) | effect on c-Jun and JunB expression (in words) (c-Jun and JunB; activated WT thymocytes) | effect on [3H] thymidine incorporation (in words) (WT thymocytes; anti-CD3+anti-CD28) | effect on Itch expression (in words) (Itch)
1 | Oc1c2ccccc2c2c3c(cccc13)N=N2 [SP600125] | 4 | at least 2 fold | 2 |  |  |  | 
2 | Oc1ccc(-c2nc(-c3ccncc3)c(-c3ccc(F)cc3)[nH]2)cc1 [SB202190] |  |  |  | No such effects | Negligible such effects | did not produce such an effect | Negligible such effects
